According to BindingDB's records for doi:10.1021/acs.jmedchem.0c00689 (Virginia Commonwealth University, 2020):
Where a SMILES comes first, the peptide text is derived from it. The star is where a group is joined. X1 = O=C(Cc1ccc(O)cc1)*

Key:
[1] = Inhibition of recombinant human full-length His6-tagged NTMT1 (1 to 222 residues) expressed in Escherichia coli BL21-CodonPlus(DE3)-RIL competent cells assessed as Me2RCC1 level at 10 uM pre-incubated for 10 mins before RCC1 substrate addition and measured after 15 mins by Western blot analysis relative to control
[2] = Inhibition of recombinant human full-length His6-tagged NTMT1 (1 to 222 residues) expressed in Escherichia coli BL21-CodonPlus(DE3)-RIL competent cells assessed as Me2RCC1 level at 10 uM pre-incubated for 0 mins before RCC1 substrate addition and measured after 15 mins by Western blot analysis relative to control
[3] = Inhibition of recombinant human full-length His6-tagged NTMT1 (1 to 222 residues) expressed in Escherichia coli BL21-CodonPlus(DE3)-RIL competent cells assessed as Me3RCC1 level at 2 uM pre-incubated for 10 mins before RCC1 substrate addition and measured after 15 mins by Western blot analysis relative to control
[4] = Inhibition of recombinant human full-length His6-tagged NTMT1 (1 to 222 residues) expressed in Escherichia coli BL21-CodonPlus(DE3)-RIL competent cells assessed as Me3RCC1 level at 50 uM pre-incubated for 10 mins before RCC1 substrate addition and measured after 15 mins by Western blot analysis relative to control
[5] = Inhibition of recombinant human full-length His6-tagged NTMT1 (1 to 222 residues) expressed in Escherichia coli BL21-CodonPlus(DE3)-RIL competent cells assessed as Me2RCC1 level at 2 uM pre-incubated for 10 mins before RCC1 substrate addition and measured after 15 mins by Western blot analysis relative to control

Row | IC50 [2] | IC50 [4] | IC50 [5] | SMILES | IC50 [1] | IC50 [3]
1 | 1000 nM | 100 nM | 100 nM | N=C(N)NCCC[C@H](NC(=O)[C@H](CCCCN)NC(=O)[C@@H]1CCCN1C(=O)Cc1ccc(O)cc1)C(N)=O |  | 
2 | 900 nM | 100 nM | 100 nM | N=C(N)NCCC[C@H](NC(=O)[C@H](CCCNC(=N)N)NC(=O)[C@H](CCCNC(=N)N)NC(=O)[C@H](CCCNC(=N)N)NC(=O)[C@H](CCCNC(=N)N)NC(=O)[C@H](CCCNC(=N)N)NC(=O)[C@H](CCCCN)NC(=O)[C@@H]1CCCN1C(=O)Cc1ccc(O)cc1)C(N)=O (X1-PKRRRRRR-NH2) | 1000 nM | 800 nM

Row | SMILES | IC50 [2] | IC50 [4] | IC50 [5] | IC50 [1] | IC50 [3]
3 | N=C(N)NCCC[C@H](NC(=O)[C@H](CCCNC(=N)N)NC(=O)[C@H](CCCNC(=N)N)NC(=O)[C@H](CCC(N)=O)NC(=O)[C@H](CCCNC(=N)N)NC(=O)[C@H](CCCNC(=N)N)NC(=O)[C@H](CCCCN)NC(=O)[C@H](CCCCN)NC(=O)[C@H](CCCNC(=N)N)NC(=O)CNC(=O)[C@H](CCCNC(=N)N)NC(=O)[C@H](CCCCN)NC(=O)[C@@H]1CCCN1C(=O)Cc1ccc(O)cc1)C(N)=O | 700 nM | 200 nM |  | 1000 nM | 1000 nM
